Consider 30 compounds from patent US9469615B2, “Quinoxalines and AZA-quinoxalines as CRTH2 receptor modulators” (Merck Sharp & Dohme Corp., priority 2010, dated 2016).

Each structure is given as a SMILES string.

For this assay, the target named is T1, hCRTH2 (Homo sapiens, UniProt Q9Y5Y4).
T1 construct: expressed in transfected cells; host or cells: HEK (human embryonic kidney) cells expressing hCRTH2; membrane preparation
T1 sequence (Q9Y5Y4 1-395): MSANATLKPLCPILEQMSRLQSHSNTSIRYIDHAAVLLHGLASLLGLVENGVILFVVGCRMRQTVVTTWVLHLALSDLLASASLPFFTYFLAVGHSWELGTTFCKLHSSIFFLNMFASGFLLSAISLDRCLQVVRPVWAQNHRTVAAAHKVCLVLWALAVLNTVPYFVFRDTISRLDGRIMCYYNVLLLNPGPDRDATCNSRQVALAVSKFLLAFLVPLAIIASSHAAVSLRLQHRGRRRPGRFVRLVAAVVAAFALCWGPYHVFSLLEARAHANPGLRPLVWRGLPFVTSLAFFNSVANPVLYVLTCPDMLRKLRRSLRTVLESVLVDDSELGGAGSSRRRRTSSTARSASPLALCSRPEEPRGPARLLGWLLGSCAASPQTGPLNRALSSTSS
Put plainly: Radioligand binding assay ([3H]PGD2 competition, HEK-hCRTH2 membranes). In short, it runs like this: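 HEK-hCRTH2 membranes, 8-20 μg; [3H]PGD2 3.0 nM; 50 mM Tris-HCl pH 7.4/1 mM EDTA/2 mM MnCl2; DMSO 1%; 60 min RT; NSB 10 μM PGD2; filtration, scintillation counting.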

The mark [1] stands for this setting: [3H]PGD2 binding, rated A-E (Table A).
The mark [2] stands for this setting: [3H]PGD2 binding, values in text.

Under setting [1], `O=C(O)CCCCc1nc2cc(C(=O)N[C@H]3CCc4ccccc43)ccc2nc1-c1ccc(F)cc1` [compound 230, 7-[[(2,3-dihydro-1H-inden-1(S)-yl)amino]carbonyl]-3-(4-fluorophenyl)-2-quinoxalinepentanoic acid] returned a Ki of 0.1 to 2 nM.

`C[C@@H](NC(=O)c1ccc2nc(-c3ccccc3)c(CC[C@@H]3C[C@H]3C(=O)O)nc2c1)c1ccc(Cl)cc1` [compound 232, trans-2-[2-[7-[[[1(R)-(4-chlorophenyl)ethyl]amino]carbonyl]-3-phenyl-2-quinoxalinyl]ethyl] cyclopropanecarboxylic acid]: the inhibition constant (Ki) under setting [1] lay in the range of 2.1 to 20 nM.

As for `C[C@@H](NC(=O)c1ccc2nc(-c3ccccc3)c(CC[C@H]3C[C@@H]3C(=O)O)nc2c1)c1ccc(Cl)cc1` [compound 233, trans-2-[2-[7-[[[1(R)-(4-chlorophenyl)ethyl]amino]carbonyl]-3-phenyl-2-quinexalinyl]ethyl]cyclopropanecarboxylic acid], the Ki under setting [1] was in the range of 2.1 to 20 nM.

Turning to `C[C@@H](NC(=O)c1ccc2nc(-c3ccccc3)c(CCCCC(=O)O)nc2c1)c1ccc(F)cc1` [compound 234, 7-[[[1(R)-(4-fluorophenyl)ethyl]amino]carbonyl]-3-phenyl-2-quinoxalinepentanoic acid], under setting [1], the inhibition constant Ki was in the range of 2.1 to 20 nM.

`C[C@H](NC(=O)c1ccc2nc(-c3ccccc3)c(CCCCC(=O)O)nc2c1)c1ccc(F)cc1` [compound 235, 7-[[[1(S)-(4-fluorophenyl)ethyl]amino]carbonyl]-3-phenyl-2-quinoxalinepentanoic acid] gave an inhibition constant (Ki) under setting [1] of 2.1 to 20 nM.

Under setting [1], `C[C@H](c1ccc(F)cc1)N(C)C(=O)c1ccc2nc(-c3ccccc3)c(CCCCC(=O)O)nc2c1` [compound 236, 7-[[[1(R)-(4-fluorophenyl)ethyl]methylamino]carbonyl]-3-phenyl-2-quinoxalinepentanoic acid] showed an inhibitory constant (Ki) of 2.1 to 20 nM.

With `C[C@@H](c1ccc(F)cc1)N(C)C(=O)c1ccc2nc(-c3ccccc3)c(CCCCC(=O)O)nc2c1` [compound 237, 7-[[[1(S)-(4-fluorophenyl)ethyl]methylamino]carbonyl]-3-phenyl-2-quinoxalinepentanoic acid], under setting [1], the inhibition constant (Ki) is 2.1 to 20 nM.

As for `C[C@H](c1ccc(Cl)cc1)N(C)C(=O)c1ccc2nc(-c3ccccc3)c(CCCCC(=O)O)nc2c1` [compound 238, 7-[[[1(R)-(4-chlorophenyl)ethyl]methylamino]carbonyl]-3-phenyl-2-quinoxalinepentanoic acid], under setting [1], the inhibition constant Ki was in the range of 2.1 to 20 nM.

With `C[C@@H](c1ccc(Cl)cc1)N(C)C(=O)c1ccc2nc(-c3ccccc3)c(CCCCC(=O)O)nc2c1` [compound 239, 7-[[[1(S)-(4-chlorophenyl)ethyl]methylamino]carbonyl]-3-phenyl-2-quinoxalinepentanoic acid], under setting [1], the inhibition constant Ki lay in the range of 2.1 to 20 nM.

The compound `C[C@H](c1ccc(F)cc1)N(C)C(=O)c1ccc2nc(-c3ccc(F)cc3)c(CCCCC(=O)O)nc2c1` [compound 240, 3-(4-fluorophenyl)-7-[[[1(R)-(4-fluorophenyl)ethyl]methylamino]carbonyl]-2-quinoxalinepentanoic acid] came in with an inhibition constant Ki under setting [1] of 2.1 to 20 nM.

The compound `C[C@@H](c1ccc(F)cc1)N(C)C(=O)c1ccc2nc(-c3ccc(F)cc3)c(CCCCC(=O)O)nc2c1` [compound 241, 3-(4-fluorophenyl)-7-[[[1(S)-(4-fluorophenyl)ethyl]methylamino]carbonyl]-2-quinoxalinepentanoic acid] displayed a Ki under setting [1] of 2.1 to 20 nM.

Under setting [1], `C[C@H](c1ccc(Cl)cc1)N(C)C(=O)c1ccc2nc(-c3ccc(F)cc3)c(CCCCC(=O)O)nc2c1` [compound 242, 7-[[[1(R)-(4-chlorophenyl)ethyl]methylamino]carbonyl]-3-(4-fluorophenyl)-2-quinoxalinepentanoic acid] came in with a Ki of 2.1 to 20 nM.

On to `C[C@@H](c1ccc(Cl)cc1)N(C)C(=O)c1ccc2nc(-c3ccc(F)cc3)c(CCCCC(=O)O)nc2c1` [compound 243, 7-[[[1(S)-(4-chlorophenyl)ethyl]methylamino]carbonyl]-3-(4-fluorophenyl)-2-quinoxalinepentanoic acid], for which the Ki under setting [1] lay in the range of 2.1 to 20 nM.

Under setting [1], `O=C(O)CCCCc1nc2cc(C(=O)N3CCC(c4ncccn4)CC3)ccc2nc1-c1ccc(F)cc1` [compound 244, 3-(4-fluorophenyl)-7-[[4-(2-pyrimidinyl)-1-piperidinyl]carbonyl]-2-quinoxalinepentanoic acid] had a Ki of 2.1 to 20 nM.

Under setting [1], `O=C(O)CCCCc1nc2cc(C(=O)N3CCC(c4ncccn4)CC3)ccc2nc1-c1ccccc1` [compound 245, 3-phenyl-7-[[4-(2-pyrimidinyl)-1-piperidinyl]carbonyl]-2-quinoxalinepentanoic acid] had a Ki of 2.1 to 20 nM.

In the case of `N#Cc1ccc(C2CN(C(=O)c3ccc4nc(-c5ccc(F)cc5)c(CCCCC(=O)O)nc4c3)C2)cc1` [compound 246, 7-[[3-(4-cyanophenyl)-1-azetidinyl]carbonyl]-3-(4-fluorophenyl)-2-quinoxalinepentanoic acid], the Ki by setting is: under setting [1], 0.1 to 2 nM; under setting [2], 1.9 nM.

The compound `O=C(O)CCCCc1nc2cc(C(=O)N3CC(c4nc5ccccc5[nH]4)C3)ccc2nc1-c1ccccc1` [compound 247, 7-[[3-(1H-benzimidazol-2-yl)-1-azetidinyl]carbonyl]-3-phenyl-2-quinoxalinepentanoic acid] yielded an inhibition constant (Ki) under setting [1] of 2.1 to 20 nM.

`O=C(O)CCCCc1nc2cc(C(=O)N3CC(c4nc5ccccc5o4)C3)ccc2nc1-c1ccc(F)cc1` [compound 248, 7-[[3-(2-benzoxazolyl)-1-azetidinyl]carbonyl]-3-(4-fluorophenyl)-2-quinoxalinepentanoic acid] yielded an inhibitory constant (Ki) under setting [1] of 2.1 to 20 nM.

Regarding `O=C(O)CCCCc1nc2cc(C(=O)N3CC(c4ccc(F)c(F)c4)C3)ccc2nc1-c1ccccc1` [compound 249, 7-[[3-(3,4-difluorophenyl)-1-azetidinyl]carbonyl]-3-phenyl-2-quinoxalinepentanoic acid], the inhibition constant (Ki) under setting [1] is 0.1 to 2 nM.

`O=C(O)CCCCc1nc2cc(C(=O)N3CC(c4ccc(F)cc4)C3)ccc2nc1-c1ccccc1` [compound 250, 7-[[3-(4-fluorophenyl)-1-azetidinyl]carbonyl]-3-phenyl-2-quinoxalinepentanoic acid]: the Ki under setting [1] lay within 0.1 to 2 nM.

As for `O=C(O)CCCCc1nc2cc(C(=O)N3CC(c4cccc(F)c4)C3)ccc2nc1-c1ccccc1` [compound 251, 7-[[3-(3-fluorophenyl)-1-azetidinyl]carbonyl]-3-phenyl-2-quinoxalinepentanoic acid], the Ki is 0.1 to 2 nM under setting [1] and 1 nM under setting [2].

Under setting [1], `O=C(O)CCCCc1nc2cc(C(=O)N3CC(c4ccc(Cl)cc4)C3)ccc2nc1-c1ccccc1` [compound 252, 7-[[3-(4-chlorophenyl)-1-azetidinyl]carbonyl]-3-phenyl-2-quinoxalinepentanoic acid] yielded an inhibitory constant (Ki) of 0.1 to 2 nM.

Regarding `O=C(O)CCCCc1nc2cc(C(=O)N3CC(c4cccc(Cl)c4)C3)ccc2nc1-c1ccccc1` [compound 253, 7-[[3-(3-chlorophenyl)-1-azetidinyl]carbonyl]-3-phenyl-2-quinoxalinepentanoic acid], under setting [1], the inhibition constant (Ki) lay within 0.1 to 2 nM.

Regarding `O=C(O)CCCCc1nc2cc(C(=O)N[C@@H]3CCCc4cc(F)ccc43)ccc2nc1-c1ccccc1` [compound 254, 7-[[(6-fluoro-1,2,3,4-tetrahydro-1(R)-naphthalenyl)amino]carbonyl]-3-phenyl-2-quinoxalinepentanoic acid], the Ki under setting [1] lay in the range of 0.1 to 2 nM.

Consider `O=C(O)CCCCc1nc2cc(C(=O)N[C@@H]3CCCc4cc(Cl)ccc43)ccc2nc1-c1ccccc1` [compound 255, 7-[[(6-chloro-1,2,3,4-tetrahydro-1(R)-naphthalenyl)amino)carbonyl]-3-phenyl-2-quinoxalinepentanoic acid], for which the inhibition constant Ki by setting is: under setting [1], 0.1 to 2 nM; under setting [2], 1.5 nM.

Where the note is “[3H]PGD2 competition, Table B”, `O=C(O)CCCCc1nc2cc(C(=O)N[C@@H]3CCCc4ccccc43)ccc2nc1-c1ccccc1` [compound 256, (R)-5-(3-phenyl-7-((1,2,3,4-tetrahydronaphthalen-1-yl)carbamoyl)quinoxalin-2-yl)pentanoic acid] gave a Ki of 0.1 to 2 nM.

Where the note is “[3H]PGD2 competition, Table B”, `C[C@H](NC(=O)c1ccc2nc(-c3ccc(Cl)cc3)c(CCCCC(=O)O)nc2c1)c1ccc(C#N)cc1` [compound 257] yielded a Ki of 2.1 to 20 nM.

The compound `C[C@@H](CCc1nc2cc(C(=O)N[C@@H]3CCCc4ccccc43)ccc2nc1-c1ccc(F)cc1)CC(=O)O` [compound 258, (S)-5-(3-(4-fluorophenyl)-7-(((R)-1,2,3,4-tetrahydronaphthalen-1-yl)carbamoyl)quinoxalin-2-yl)-3-methylpentanoic acid] gave an inhibition constant (Ki) ([3H]PGD2 competition, Table B) of 2.1 to 20 nM.

With `O=C(O)Cc1cccc(-c2nc3cc(C(=O)N4CCN(c5ccccc5)CC4)ccc3nc2-c2ccc(Cl)cc2)c1` [compound 259, 2-(3-(3-(4-chlorophenyl)-7-(4-phenylpiperazine-1-carbonyl)quinoxalin-2-yl)phenyl)acetic acid], the Ki ([3H]PGD2 competition, Table B) lay within 201 to 700 nM.

As for `O=C(N[C@@H]1CCCc2cc(F)ccc21)c1ccc2nc(-c3ccc(F)cc3)c(CC[C@H]3C[C@@H]3C(=O)O)nc2c1` [compound 261, (1S,2S)-2-(2-(7-(((R)-6-fluoro-1,2,3,4-tetrahydronaphthalen-1-yl)carbamoyl)-3-(4-fluorophenyl)quinoxalin-2-yl)ethyl)cyclopropane-carboxylic acid], under “[3H]PGD2 competition, Table B”, the Ki lay in the range of 2.1 to 20 nM.

By Ki is commonly meant a measure of affinity in units of concentration, obtained from inhibition or displacement. A higher Ki goes with weaker binding.
